Measured values as given in patent publication US3947589A (priority 1971, dated 1976).
Read-outs that look alike come from different tables or passages of the source.

Key:
acute oral toxicity test = conditions: in vivo
Text: The results of an acute oral toxicity test of the active ingredient used in the present invention is that its LD50 is about 6 g/kg in the case of N-lauroyl-L-valine. This is an extremely low toxicity.

citrus melanose = experiment: inhibitory test against Citrus melanose; assay type: in vivo; conditions: for pest or weed control at 500 ppm: read-out: Preventive value; for Extent infection: Table 4, untreated 53; for Extent infection / Extent of infection: 500 ppm, about 2-3 weeks after inoculation; for Extent of infection: Table 5, untreated 57
Text: Experimental example 3 : inhibitory test against Citrus melanose a. Test plant: shoots of about 3 years grown seedlings of citrus "Onshu" (2 - 4 trees planted in about 20 cm claypot) b. Solution used for test
As control fungicide, "Daisen" [trade (trade name, product of Nihon-NohyakuCo., Ltd., wettable powder containing zinc ethylene bis (dithiocarbamate)]was sprayed at 1000 ppm. c. Inoculum and the method of inoculation
In order to prepare suspension of pycnospores, distilled and sterilized water was poured on the culture twigs with citrus melanose in a test tube. The suspension containing about 200 of pycnospores was prepared under the observation of microscope of 150 magnification and then sprayed inoculation on the test plants treated as above. After inoculation, the test plants were placed in the inoculation box at 27°C and relative humidity of above 95% for about 3 days. Then, they were transferred into the greenhouse. […]
d. The method of inspection
About 2 - 3 weeks after inoculation, the entire leaves of shoots was inspected for the development of disease and the state of infection was evaluated on a scale of 0 to 3 as follows:
1 : 1 -- 50 of disease spots
2 : 51 -- 150 of disease spots
3 : above 151 of disease spots
The extent of infection and the preventive value were calculated according to the following equations (I) and (II), respectively. [formula] wherein n1, n2 and n3 are number of leaves inspected to be the states of infection 1, 2 and 3, respectively and N is the total number of leaves. [formula]

[1] = system: cucumber downy mildew (Pseudoperonospore cubensis); experiment: inhibitory test against cucumber downy mildew; assay type: in vivo; conditions: for pest or weed control at 500 ppm: Cucumis sativus; for Number of leaves infected (outside) / Number of leaves infected (inside): 23rd of May
Protocol: Experimental example 4 : inhibitory test against cucumber downy mildew
Cucumber seeds (variety "Shinhikari No. A") were planted in seed-beds at the biginning of October, three cucumber seeds being planted per seed-bed, and they were grown in a greenhouse made of vinyl resin. This experiment was performed as three-repeated cultivation.
The test plants treated thus were left to spontaneous infection.

[2] = system: Piricularia oryzae (rice blast); conditions: 500 ppm
[3] = system: Piricularia oryzae (rice blast); experiment: whole plant or invertebrate; conditions: Pyricularia oryzae, 48 h, read-out: Preventive value
[4] = Table 4, about 2-3 weeks after inoculation
[5] = Table 6, 500 ppm, four sprays, inside of leaves, read-out: Preventive value (inside)
[6] = Table 6, 500 ppm, four sprays, outside of leaves, read-out: Preventive value (outside)
[7] = Table 6, 500 ppm, four sprays, untreated 12
[8] = Table 6, 500 ppm, four sprays, untreated 22
[9] = Table 1, 50 ml per pot, two days after infection, untreated 33.0
[10] = read-out: Preventive value (inside)
[11] = read-out: Preventive value (outside)
[12] = Table 5, about 2-3 weeks after inoculation
[13] = Table 7, 500 ppm, four sprays, untreated 13
[14] = Table 7, 500 ppm, four sprays, untreated 15
[15] = Table 7, 500 ppm, four sprays, inside of leaves, read-out: Preventive value (inside)
[16] = Table 7, 500 ppm, four sprays, outside of leaves, read-out: Preventive value (outside)

| SMILES | pest or weed control at 500 ppm (citrus melanose; [4]) [%] | Extent infection (citrus melanose) [%] | Number of leaves infected (outside) [1, 7] | Number of leaves infected (inside) [1, 8] | Average number of disease lesions per leaf [2, 9] | pest or weed control at 500 ppm [3] [%] | further results |
| --- | --- | --- | --- | --- | --- | --- | --- |
| CCCCCCCCCCCC(=O)N[C@H](C(=O)O)C(C)C [No. 2, N-lauroyl-L-valine] |  |  |  |  |  |  | LD50 (acute oral toxicity test): ~6000 mg/kg |
| CCCCCCCCCCCC(=O)NCC(=O)O [compound 1] | 72 | 15 | 4 | 6 | 1.7 | 95 | pest or weed control at 500 ppm [1, 5]: 73%; pest or weed control at 500 ppm [1, 6]: 67% |
| CCCCCCCCCCCC(=O)N[C@H](C(=O)O)C(C)C [compound 2] |  |  |  |  | 6.6 | 80 |  |
| CCCCCCCCCCCC(=O)NC(Cc1ccc([N+](=O)[O-])cc1)C(=O)O (centres unmarked) [compound 3] | 50 | 26 | 6 | 9 | 8.9 | 73 | pest or weed control at 500 ppm [1, 5]: 59%; pest or weed control at 500 ppm [1, 6]: 50% |
| CCCCCCCCCCCCCCCCCC(=O)N[C@@H](Cc1ccccc1)C(=O)O [compound 4] | 60 | 21 | 7 | 10 | 7.3 | 78 | pest or weed control at 500 ppm [1, 10]: 47%; pest or weed control at 500 ppm [1, 11]: 42% |
| CCCCCCCC/C=C\CCCCCCCC(=O)NCC(=O)O [compound 5] |  |  |  |  | 11.0 | 67 |  |
| CCCCCCCCCCCCCCCCCC(=O)NCC(=O)O [compound 6] | 68 | 17 |  |  | 6.6 | 80 |  |
| CCCCCCCCCCCCCCCCCC(=O)NC(C)C(=O)O (centres unmarked) [compound 7] |  |  | 5 | 8 | 5.9 | 82 | pest or weed control at 500 ppm [1, 5]: 64%; pest or weed control at 500 ppm [1, 6]: 58% |
| CCCCCCCCCCCC(=O)NC(Cc1ccccc1)C(=O)O (centres unmarked) [compound 8] | 59 | 22 | 3 | 7 | 11.0 | 67 | pest or weed control at 500 ppm [1, 5]: 68%; pest or weed control at 500 ppm [1, 6]: 75% |
| CCCCCCCCCCCCCC(=O)NCC(=O)O [compound 9] |  |  | 7 | 9 | 9.9 | 70 | pest or weed control at 500 ppm [1, 5]: 59%; pest or weed control at 500 ppm [1, 6]: 42% |
| CCCCCCCCCCCC(=O)N[C@@H](CC(=O)O)C(=O)O [compound 10] | 74 | 14 |  |  | 11.6 | 65 |  |
| CCCCCCCCCCCC(=O)N[C@H](C(=O)O)[C@@H](C)O [compound 11] |  |  |  |  | 7.6 | 77 |  |
| CCCCCCCCCC(=O)N[C@@H](Cc1ccccc1)C(=O)O [compound 12] |  |  | 4 | 6 | 11.6 | 65 | pest or weed control at 500 ppm [1, 5]: 73%; pest or weed control at 500 ppm [1, 6]: 67% |
| CCCCCCCCCCCC(=O)N[C@@H](CC(C)C)C(=O)O [compound 13] |  |  | 7 | 9 | 8.9 | 73 | pest or weed control at 500 ppm [1, 5]: 59%; pest or weed control at 500 ppm [1, 6]: 42% |
| C=CCCCCCCCCC(=O)N[C@@H](CC(C)C)C(=O)O [compound 14] | 65 | 19 |  |  | 5.6 | 83 |  |
| CCCCCCCCCCCC(=O)N(C)CC(=O)O [compound 15] |  |  |  |  | 7.4 | 88 |  |
| CCCCCCCCCC(=O)NC(CCSC)C(=O)O (centres unmarked) [compound 16] | 54 | 24 |  |  | 11.0 | 67 |  |
| CCCCCCCCCCCC(=O)N[C@H](C(=O)OCC)C(C)C [compound 19] |  |  |  |  | 7.3 | 78 |  |
| CCCCCCCCCCCCCC(=O)N[C@@H](CCC(=O)O)C(=O)O [compound 20] |  |  |  |  | 9.9 | 70 |  |
| CCCCCCCCCCCCCC(=O)N[C@@H](CCCNC(=N)N)C(=O)OCC [compound 21] |  |  |  |  |  | 75 | pest or weed control at 500 ppm (citrus melanose; [12]): 73%; Extent of infection (citrus melanose): 15%; pest or weed control at 500 ppm [1, 10]: 47%; pest or weed control at 500 ppm [1, 11]: 55%; Number of leaves infected (outside) [1, 13]: 5; Number of leaves infected (inside) [1, 14]: 8; Average number of disease lesions per leaf ([2]; Table 2, untreated 34.2): 8.5 |
| CCCCCCCCCCCCCC(=O)N[C@@H](CCCCN)C(=O)OC [compound 23] |  |  |  |  |  | 82 | pest or weed control at 500 ppm (citrus melanose; [12]): 64%; Extent of infection (citrus melanose): 21%; pest or weed control at 500 ppm [1, 15]: 47%; pest or weed control at 500 ppm [1, 16]: 45%; Number of leaves infected (outside) [1, 13]: 7; Number of leaves infected (inside) [1, 14]: 8; Average number of disease lesions per leaf ([2]; Table 2, untreated 34.2): 6.2 |
| CCCCCCCCCCCC(=O)N[C@@H](CCCN)C(=O)OC [compound 24] |  |  |  |  |  | 78 | pest or weed control at 500 ppm (citrus melanose; [12]): 68%; Extent of infection (citrus melanose): 18%; pest or weed control at 500 ppm [1, 15]: 47%; pest or weed control at 500 ppm [1, 16]: 52%; Number of leaves infected (outside) [1, 13]: 6; Number of leaves infected (inside) [1, 14]: 8; Average number of disease lesions per leaf ([2]; Table 2, untreated 34.2): 7.3 |
| CCCCCCCCCCCCCC(=O)N[C@@H](Cc1c[nH]cn1)C(=O)OC [compound 25] |  |  |  |  |  | 85 | Average number of disease lesions per leaf ([2]; Table 2, untreated 34.2): 5.1 |
| CCCCCCCCCCCC(=O)N[C@@H](CCCNC(N)=O)C(=O)OC [compound 26] |  |  |  |  |  | 82 | Average number of disease lesions per leaf ([2]; Table 2, untreated 34.2): 6.2 |
| CCCCCCCCCCCC(=O)N[C@@H](CCCNC(=N)N)C(=O)OCC [compound 27] |  |  |  |  |  | 80 | pest or weed control at 500 ppm (citrus melanose; [12]): 75%; Extent of infection (citrus melanose): 14%; pest or weed control at 500 ppm [1, 15]: 40%; pest or weed control at 500 ppm [1, 16]: 52%; Number of leaves infected (outside) [1, 13]: 6; Number of leaves infected (inside) [1, 14]: 9; Average number of disease lesions per leaf ([2]; Table 2, untreated 34.2): 6.8 |
| CCCCCCCCCCCCCCCCCC(=O)N[C@@H](CCCNC(=N)N)C(=O)OCC [compound 28] |  |  |  |  |  | 78 | pest or weed control at 500 ppm (citrus melanose; [12]): 73%; Extent of infection (citrus melanose): 15%; Average number of disease lesions per leaf ([2]; Table 2, untreated 34.2): 7.3 |
